Data reported in patent US6632789B1, “Methods for modulating T cell responses by manipulating intracellular signal transduction” (The United States of America as represented by the …, priority 1994, dated 2003).
Like-named read-outs stand apart in the source and are kept apart here.

How the values were obtained:
[1] = system: CD28-induced IL-2 production; conditions: cited from earlier work
[2] = system: CD28-mediated calcium flux in Jurkat cells; assay: Anti-CD28 antibody-induced calcium flux in Jurkat cells; format: cell-based; conditions: Jurkat cells stimulated with anti-CD28 antibody; FIG. 4
Method: In this example, the effect of pharmacological inhibitors on calcium flux in Jurkat cells induced by anti-CD28 antibodies was examined. The pharmacological inhibitors studied were wortmannin, which inhibits the activity of PI3K, and herbimycin A, which inhibits the activity of protein tyrosine kinases. Jurkat cells were stimulated with an anti-CD28 antibody, either in medium alone or in the presence of wortmannin or herbimycin A, and the mean calcium concentration (nM) in the cells was measured over several minutes following stimulation.

human T cells = assay: IL-2 production by human T cells after 24 hours (ELISA of supernatants); format: cell-based; conditions: for IC50: T-cell
Method: In this example, the effect of an inhibitor of phosphatidylinositol 3-kinase on CD28-dependent production of interleukin-2 by T cells was examined. In a first series of experiments, the effect of T cell stimulation through CD28, in conjunction with stimulation through CD3, on IL-2 production was assessed in the absence of wortmannin. Highly purified human peripheral blood T cells were incubated for 24 hours with an immobilized anti-CD3 antibody (OKT3) alone or together with either an anti-CD28 antibody (9.3) or mitomycin C-treated CHO cells, either untransfected or transfected to express B7-1 or B7-2. Increasing numbers of CHO cells were tested (0.5×10^6 to 4×10^6). After culture for 24 hours, the culture supernatants were assayed for IL-2 production by ELISA by standard techniques.
In a next series of experiments, resting human T cells were stimulated with either: 1) immobilized OKT3+CHO-B7-1, 2) immobilized OKT3+CHO-B7-2, 3) immobilized OKT3+CHO-B7-1+B7-2, 4) PMA+CHO-B7-1 or 5) PMA+B7-2. Stimulation of T cells was performed in media alone or in media containing wortmannin at concentrations between 1 nM and 1 μM. Twenty-four hours following culture, the supernatants were assayed for IL-2 production by ELISA. […] Wortmannin-mediated inhibition of IL-2 production was dose dependent. The ID50 for inhibition of B7-2 -mediated stimulation was approximately 10 nM. The ID50 for inhibition of B7-1-mediated stimulation was between 10 and 100 nM.

Compound: CO[C@H]1[C@@H](OC)C[C@H](C)[C@@H](OC)C2=CC(=O)C=C(NC(=O)/C(C)=C/C=C\[C@H](OC)[C@@H](OC(N)=O)/C(C)=C/[C@@H]1C)C2=O [herbimycin A]
- inhibition of CD28-induced IL-2 production [1]: can inhibit
- inhibition of CD28 antibody-induced calcium flux [2]: capable of inhibiting

Compound: COC[C@H]1OC(=O)c2coc3c2[C@@]1(C)C1=C(C3=O)[C@@H]2CCC(=O)[C@@]2(C)C[C@H]1OC(C)=O [wortmannin]
- IC50 (human T cells; resting human T cells, immobilized OKT3+CHO-B7-1, 24 hours, read-out: ID50 for inhibition of B7-1-mediated stimulation of IL-2 production): 0.01 to 0.1 µM
- IC50 (human T cells; resting human T cells, immobilized OKT3+CHO-B7-2, 24 hours, read-out: ID50 for inhibition of B7-2-mediated stimulation of IL-2 production): ~0.01 µM
- toxicity to the cells (human T cells; resting human T cells, at the ID50 doses (10 to 100 nM)): not generally toxic
- inhibition of IL-2 production stimulated by PMA together with membrane-bound B7-1 or B7-2 (human T cells; resting human T cells, wortmannin at concentrations as high as 1 μM): not inhibited

Compound: OKT3: immobilized anti-CD3 antibody (OKT3)
- IL-2 production (human T cells; purified human peripheral blood T cells, 24 hours, immobilized OKT3 alone, FIG. 6): did not produce IL-2
